Assay results reported in patent US20240383906A1, “5-SUBSTITUTED PYRIDINE-2(1H)-KETONE COMPOUND AND USE THEREOF” (JIANGSU KANION PHARMACEUTICAL CO., LTD., priority 2021, published 2024).

Legend:
[1] = test system: Capan-2 cells; test: Capan-2 cell anti-proliferative activity test; format: cell-based; details: Homo sapiens, Capan-2, 120 h; 5 days, CellTiter-Glo
Method: Capan-2 cells were provided by Wuhan Heyan Biomedical Technology Co., Ltd., and CellTiter-Glo was purchased from Promega.
Capan-2 cells were seeded in a white 96-well plate, with 80 μL of cell suspension per well, each containing 5,000 Capan-2 cells. The cell plate was placed in a carbon dioxide incubator for overnight culture.
The test compounds were 3-fold diluted with a multi-channel pipette to the 9th concentration, i.e., diluted from 200 μM to 30 nM, and duplicate experiment was set. 78 μL of culture medium was added to an intermediate plate, and then 2 μL of gradient diluted compound per well was transferred to the intermediate plate according to the corresponding position. After mixing well, the compound was transferred to the cell plate at 20 μL per well. The cell plate was placed in a carbon dioxide incubator and cultured for 5 days. Another cell plate was prepared, and the signal value was read on the day of drug administration to serve as the maximum value (Max value in the equation below) for data analysis. 25 μL of cell viability chemiluminescence detection reagent was added to each well of this cell plate, and it was incubated at room temperature for 10 minutes to stabilize the luminescent signal. A multimode microplate reader was used for reading.
After the cell plate was cultured for 5 days, 25 μL of Promega CellTiter-Glo reagent was added to each well of the cell plate, and it was incubated at room temperature for 10 minutes to stabilize the luminescent signal. A multimode microplate reader was used for reading.
The IC50 value could be obtained through curve fitting, and the results of the inhibitory activity of the compounds of the present disclosure on the proliferation of Capan-2 cells are shown in Table 11.

[2] = test system: WNT pathway STF reporter gene; test: Super-Top-Flash (STF) reporter gene inhibitory activity test; format: cell-based; details: HEK293 STF and L wnt3A cells 1:1, 24 hours, Bright-Glo
Method: HEK293 STF and L wnt3A cells were provided by Wuhan Heyan Biomedical Technology Co., Ltd., and Bright Glo was purchased from Promega.
• HEK293 STF and L wnt3A cells were seeded in a white 96-well plate at a ratio of 1:1, with 80 μL of cell suspension per well, each containing 20,000 HEK293 STF cells and 20,000 L wnt3A cells. The cell plate was placed in a carbon dioxide incubator for overnight culture.
The test compounds were 5-fold diluted with a multi-channel pipette to the 8th concentration, i.e., diluted from 400 μM to 5.12 nM, and duplicate experiment was set. 78 μL of culture medium was added to an intermediate plate, and then 2 μL of gradient diluted compound per well was transferred to the intermediate plate according to the corresponding position. After mixing well, the compound was transferred to the cell plate at 20 μL per well. The cell plate was placed in a carbon dioxide incubator and cultured for 24 hours.
100 μL of Promega Bright-Glo reagent was added to each well of the cell plate, and it was incubated at room temperature for 10 minutes to stabilize the luminescent signal. A multimode microplate reader was used for reading.
Using the raw data from the multimode microplate reader, the IC50 value could be obtained through curve fitting. Table 10 provides the data on the inhibitory activity of the compounds of the present disclosure on the Wnt signaling pathway.

[3] = Solvent pre-stability of crystal form A (suspension stirring, XRPD); format: physicochemical; details: for Crystal form after suspension in solvent (XRPD): stirred overnight at 25° C.
Method: (To ensure maximum suspension of the sample, the amount of compound and solvent was adjusted during the experiment based on the observed phenomena, and even the container used for the experiment was changed if necessary.) After adding a magneton, the suspension sample was placed on a magnetic heating stirrer (25° C.) for testing. After stirring overnight at 25° C., the suspension sample was filtered, and the solid sample on the filter cake was placed in a vacuum drying oven (45° C.) to dry overnight. The crystal form of the solid was obtained by X-ray powder diffraction (XRPD) detection.

[4] = Hygroscopicity of crystal form A (DVS); format: physicochemical
Method: • SMS DVS intrinsic dynamic vapor sorption instrument
Note: ΔW % represents the increase in weight due to moisture absorption of the test sample at 25±1° C. and 80±2% RH.

[5] = Solid pre-stability test of crystal form A (high temperature, high humidity, light; XRPD); format: physicochemical
Method: The sample placed under high temperature (60° C.) and high humidity (relative humidity 92.5% RH) conditions was sealed with aluminum foil to seal the mouth of the vial, and small holes were made in the aluminum foil to ensure that the sample could fully contact the ambient air, and it was placed in the corresponding constant temperature and humidity box. The light sample (open, not covered with aluminum foil) and the light control sample (the entire sample vial was covered with aluminum foil) were placed in the light box. At each time point, two samples were weighed separately as official test samples. […] The sample vial was wrapped with aluminum foil and small holes were made, and it was also placed in the corresponding constant temperature and humidity box. The sample was taken for testing (XRPD) on days 5 and 10, and the test results were compared with the initial test results on day 0.

In the case of Cn1cc(-c2ccc(CNc3ncnn4c(-c5cncc(F)c5)ccc34)cn2)ccc1=O [Compound 1], the IC50 [1] is reported as 6.09 nM and the IC50 [2] is reported as 8.41 nM.

Compound Cn1cc(-c2cnc(CNc3nccn4c(-c5cncc(F)c5)cnc34)cn2)ccc1=O [Compound 3] has an IC50 [1] of 28 nM.

For Cn1cc(-c2ccc(CNc3nccn4c(-c5cncc(F)c5)cnc34)cn2)ccc1=O [Compound 4], the IC50 [1] was 24.6 nM.

In the case of Cn1cc(-c2ccc(CNc3nccc4c3ncn4-c3cncc(F)c3)cn2)ccc1=O [Compound 5], the IC50 [1] is reported as 11.7 nM.

For Cn1cc(-c2ccc(CNc3nccn4c(-c5cncc(F)c5)cnc34)cc2)ccc1=O [Compound 6], the IC50 [1] was 22.2 nM.

With Cn1cc(-c2ccc(CNc3nccc4c3ncn4-c3ccccc3)cn2)ccc1=O [Compound 7] the IC50 [1] was 5.94 nM.

In the case of Cn1cc(-c2cnc(CNc3nccn4c(-c5cc(F)cc(F)c5)cnc34)cn2)ccc1=O [crystal form A of compound 2], the “Crystal form after suspension in solvent (XRPD)” value (shortened to “Crystal form after suspension”) ([3]; 2-Methyltetrahydrofuran) is reported as “Crystal form A”, the “Crystal form after suspension” value ([3]; Acetone) is reported as “Crystal form A” and the “Crystal form after suspension” value ([3]; Acetone:water (2:1)) is reported as “Crystal form A”. The “Crystal form after suspension” value ([3]; Acetonitrile) was “Crystal form A”, the “Crystal form after suspension” value ([3]; Dioxane) was “Crystal form A” and the “Crystal form after suspension” value ([3]; Ethanol) was “Crystal form A”. The “Crystal form after suspension” value ([3]; Ethanol:water (1:1)) was “Crystal form A”, the “Crystal form after suspension” value ([3]; Ethyl acetate) was “Crystal form A” and the “Crystal form after suspension” value ([3]; Isopropanol) was “Crystal form A”. For the same compound, the “Crystal form after suspension” value ([3]; Methanol) was “Crystal form A”, the “Crystal form after suspension” value ([3]; Methyl tert-butyl ether) was “Crystal form A” and the “Crystal form after suspension” value ([3]; Tetrahydrofuran) was “Crystal form A”. The “Stability in different solvents” value ([3]; conclusion) was “good stability”, the “Crystal form after suspension” value ([3]; n-Heptane) was “Crystal form A” and the Hygroscopicity classification ([4]; 25° C. and 80% RH) was “no or almost no hygroscopicity”. For the same compound, the “Weight gain due to moisture absorption” value ([4]; 25° C., 80% RH, compared to initial humidity of 30% (cycle 1 adsorption)) was 0.07%, the “Weight decrease of the sample” value ([4]; 25° C., humidity continued to rise to 90%) was 0.15% and the “Weight gain due to moisture absorption” value ([4]; 25° C., humidity continued to rise to 95% (cycle 1 adsorption)) was 0.01%. For the same compound, the “Crystal form before and after the DVS test (XRPD)” value ([4]; 30-95-0-95% RH/25° C.) was “the crystal form did not change”, the “Crystal form (XRPD)” value ([5]; 0 days) was “Crystal form A” and the “Crystal form (XRPD)” value ([5]; High humidity (relative humidity 92.5%, open), 5 days) was “Crystal form A”. The “Crystal form (XRPD)” value ([5]; High humidity (relative humidity 92.5%, open), 10 days) was “Crystal form A”, the “Crystal form (XRPD)” value ([5]; High temperature (60° C., open), 5 days) was “Crystal form A” and the “Crystal form (XRPD)” value ([5]; High temperature (60° C., open), 10 days) was “Crystal form A”. The “Crystal form (XRPD)” value ([5]; Light (total illumination = 1.2 × 10^6 Lux · hr/near ultraviolet = 200 w · hr/m^2, open), 5 days) was “Crystal form A”, the “Crystal form (XRPD)” value ([5]; Light (total illumination = 1.2 × 10^6 Lux · hr/near ultraviolet = 200 w · hr/m^2, open), 10 days) was “Crystal form A” and the “Stability under high temperature, high humidity, and strong light” value ([5]; conclusion) was “good stability”.
